Measured values as given in PubChem BioAssay AID248 (DTP/NCI, 2004).
Inconclusive results and toxic doses are left out. Cut-off read from the data, not from the text of the source: active = T/C of 150% or more; inactive = T/C below 125%.

System: L1210 leukemia ip in BDF1 mice, survival T/C
Test: NCI In Vivo Anticancer Drug Screen. Data for tumor model L1210 Leukemia (intraperitoneal) in B6D2F1 (BDF1) mice
Details: endpoint: mean survival time, higher = longer survival
Summary of the method: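 Tumor was transplanted into mice, which were then dosed with test compound or vehicle alone. Survival was recorded for each group, and the treated figure was expressed relative to the control figure.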

[1] = dose: 75.0 mg/kg/injection, schedule: Q01DX001 (ip), vehicle: saline
[2] = dose: 100.0 mg/kg/injection, schedule: Q04DX003 (ip), vehicle: saline with Tween-80
[3] = dose: 200.0 mg/kg/injection, schedule: Q04DX003 (ip), vehicle: saline with Tween-80
[4] = dose: 400.0 mg/kg/injection, schedule: Q04DX003 (ip), vehicle: saline with Tween-80
[5] = dose: 100.0 mg/kg/injection, schedule: Q01DX009 (ip), vehicle: saline with Tween-80
[6] = dose: 200.0 mg/kg/injection, schedule: Q01DX009 (ip), vehicle: saline with Tween-80
[7] = dose: 400.0 mg/kg/injection, schedule: Q01DX009 (ip), vehicle: saline with Tween-80

Measured: T/C

O=C(NOCc1cscn1)NC1CCCCC1
inactive: [1] 98 % of control

O=C(O)c1ccc(NO)cc1
inactive: dose: 24.0 mg/kg/injection, schedule: Q01DX Z (ip), vehicle: methylcellulose (MC) 103 % of control | dose: 36.0 mg/kg/injection, schedule: Q01DX Z (ip), vehicle: methylcellulose (MC) 100 % of control | dose: 55.0 mg/kg/injection, schedule: Q01DX Z (ip), vehicle: methylcellulose (MC) 102 % of control | dose: 83.0 mg/kg/injection, schedule: Q01DX Z (ip), vehicle: methylcellulose (MC) 93 % of control

CCOc1cc(-c2nc(-c3ccc(N=Cc4ccc(N(CCCOS(C)(=O)=O)CCCOS(C)(=O)=O)cc4C)cc3)cs2)ccc1OCc1ccccc1
inactive: [2] 91 % of control | [3] 86 % of control | [4] 89 % of control

Cc1ccc(S(=O)(=O)NN=C2CCC(C(C)(C)C)CC2)cc1 (centres undefined)
inactive: [5] 88 % of control | dose: 100.0 mg/kg/injection, schedule: Q04DX003 (ip), vehicle: other 91 % of control | [6] 88 % of control | dose: 200.0 mg/kg/injection, schedule: Q04DX003 (ip), vehicle: other 89 % of control | [7] 91 % of control | dose: 400.0 mg/kg/injection, schedule: Q04DX003 (ip), vehicle: other 96 % of control

CCCCCCCC[N+](CC)(CC)CCOC(=O)C(C1CCCC1)C1CCCC1
inactive: dose: 0.25 mg/kg/injection, schedule: Q01DX015 (ip), vehicle: saline 91 % of control | dose: 0.5 mg/kg/injection, schedule: Q01DX015 (ip), vehicle: saline 91 % of control | dose: 1.0 mg/kg/injection, schedule: Q01DX015 (ip), vehicle: saline 88 % of control | dose: 1.25 mg/kg/injection, schedule: Q01DX009 (ip), vehicle: saline 95 % of control | dose: 2.0 mg/kg/injection, schedule: Q01DX015 (ip), vehicle: saline 86 % of control | dose: 2.5 mg/kg/injection, schedule: Q01DX009 (ip), vehicle: saline 102 % of control | dose: 2.5 mg/kg/injection, schedule: Q04DX003 (ip), vehicle: saline 94 % of control | dose: 5.0 mg/kg/injection, schedule: Q04DX003 (ip), vehicle: saline 94 % of control

CCCCCCCCCCCC[N+](C)(C)C
inactive: dose: 10.0 mg/kg/injection, schedule: Q01DX009 (ip), vehicle: saline 104 % of control | dose: 20.0 mg/kg/injection, schedule: Q01DX009 (ip), vehicle: saline 105 % of control

O=[N+]([O-])c1cccnc1Oc1cc(Cl)c(Cl)cc1Cl
inactive: [5] 107 % of control | [2] 102 % of control | [6] 107 % of control | [3] 93 % of control | [7] 100 % of control | [4] 91 % of control

CCOC(=S)SCC(=O)c1ccc(Br)cc1
inactive: dose: 100.0 mg/kg/injection, schedule: Q04DX002 (ip), vehicle: Klucel (hydroxypropylcellulose) (HPC) 101 % of control | dose: 200.0 mg/kg/injection, schedule: Q04DX002 (ip), vehicle: Klucel (hydroxypropylcellulose) (HPC) 92 % of control | dose: 400.0 mg/kg/injection, schedule: Q04DX002 (ip), vehicle: Klucel (hydroxypropylcellulose) (HPC) 86 % of control

CC(=O)N(C1=C(N(CCO)CCO)C(=O)c2ccccc2C1=O)c1ccccc1
inactive: [2] 106 % of control | [3] 103 % of control | [4] 101 % of control

CCOC(=O)c1c(N)cc(=O)[nH]c1O
inactive: [1] 101 % of control | dose: 150.0 mg/kg/injection, schedule: Q01DX001 (ip), vehicle: saline 98 % of control | dose: 300.0 mg/kg/injection, schedule: Q01DX001 (ip), vehicle: saline 95 % of control
